Source: the Deep4Chem optical property database
Values belong to the compound of their own block, whether it stands above or below them.

Test: photoluminescence quantum yield (fraction); solvent given as SMILES
[1] = in O=P(c1ccccc1)(c1ccccc1)c1ccccc1Oc1ccccc1P(=O)(c1ccccc1)c1ccccc1

SMILES: Cc1cc(C)c(B(c2ccc(N3c4ccccc4Oc4ccccc43)cc2)c2c(C)cc(C)cc2C)c(C)c1
photoluminescence quantum yield (in Cc1ccccc1): 0.87

SMILES: Cc1cc(-n2c3ccccc3c3cc4c(cc32)C2c3ccccc3C4c3ccccc32)c(C)cc1-c1nc(-c2ccccc2)nc(-c2ccccc2)n1
photoluminescence quantum yield (in Cc1ccccc1): 0.46
photoluminescence quantum yield [1]: 0.3

SMILES: c1csc(-c2c3ccc(=[N+]4CCCCC4)cc-3oc3cc(N4CCCCC4)ccc23)c1
photoluminescence quantum yield (in CCO): 0.1
photoluminescence quantum yield (in ClCCl): 0.33

SMILES: Cc1sc(Cl)cc1-c1nc(-c2ccc(Cl)cc2)[nH]c1-c1cc(Cl)sc1C
photoluminescence quantum yield (in CC#N): 0.114

SMILES: O=[N+]([O-])c1ccc(F)cc1C1CC(c2cccc3ccccc23)=NN1c1ccccc1 (centres undefined)
photoluminescence quantum yield (in C1CCCCC1): 0.24
photoluminescence quantum yield (in C1CCOC1): 0.3
photoluminescence quantum yield (in C1COCCO1): 0.46
photoluminescence quantum yield (in CC#N): 0.2
photoluminescence quantum yield (in CC(C)O): 0.19
photoluminescence quantum yield (in CCOC(C)=O): 0.15
photoluminescence quantum yield (in CCOCC): 0.2
photoluminescence quantum yield (in CO): 0.14
photoluminescence quantum yield (in Cc1ccccc1): 0.22
photoluminescence quantum yield (in ClC(Cl)Cl): 0.12
photoluminescence quantum yield (in O): 0.12

SMILES: Cc1cc2nc3c(=O)[nH]c(=O)n(C)c3nc2cc1C
photoluminescence quantum yield (in CC#N): 0.027

SMILES: CCCCC(CC)COc1cc(OCC(CC)CCCC)c2c#cc3ccc4oc5ccc(c#cc6cc(c#cc7ccc8oc9ccc(c#cc1c2)cc9c8c7)c(C(CCCC)OCCC)cc6C(CCCC)OCCC)cc5c4c3 (centres undefined)
photoluminescence quantum yield (in ClCCl): 0.57

SMILES: Cc1ccc2cc3cc(C)ncc3cc2c1
photoluminescence quantum yield (in CCO): 0.48

SMILES: c1ccc(-c2ccc3c(c2)c2cc(-c4ccccc4)ccc2n3-c2ccc3c(c2)c2cc(-n4c5ccc(-c6ccccc6)cc5c5cc(-c6ccccc6)ccc54)ccc2n3-c2ccc(-c3nc(-c4ccccc4)nc(-c4ccccc4)n3)cc2)cc1
photoluminescence quantum yield (in Cc1ccccc1): 0.74

SMILES: COc1ccccc1-c1nc2c3ccccc3c3ccccc3c2n1-c1ccc(C)cc1
photoluminescence quantum yield (in Cc1ccccc1): 0.284

SMILES: COc1ccc(C2=Nc3sc(-c4ccccc4)n[n+]3[B-](F)(F)O2)cc1
photoluminescence quantum yield (in Cc1ccccc1): 0.29

SMILES: O=CC1=C(c2ccc(-c3cccs3)s2)CCC1
photoluminescence quantum yield (in CCO): 0.02

SMILES: CCCCN1c2ccccc2Sc2cc(/C=C/C3=Nc4ccc5ccccc5c4C3(C)C)ccc21
photoluminescence quantum yield (in C1CCCCC1): 0.09
photoluminescence quantum yield (in C1CCOC1): 0.12
photoluminescence quantum yield (in C1COCCO1): 0.17
photoluminescence quantum yield (in CC#N): 0.05
photoluminescence quantum yield (in CC(C)=O): 0.06
photoluminescence quantum yield (in CC(C)O): 0.07
photoluminescence quantum yield (in CCOC(C)=O): 0.13
photoluminescence quantum yield (in CCOCC): 0.14
photoluminescence quantum yield (in CO): 0.01
photoluminescence quantum yield (in CS(C)=O): 0.09
photoluminescence quantum yield (in Cc1ccccc1): 0.18
photoluminescence quantum yield (in ClCCl): 0.11

SMILES: CN(C)c1ccc(C#Cc2cc(C#Cc3ccc(N(C)C)cc3)c3ccc4c(C#Cc5ccc(N(C)C)cc5)cc(C#Cc5ccc(N(C)C)cc5)c5ccc2c3c54)cc1
photoluminescence quantum yield (in ClCCl): 0.6

SMILES: CC(=O)O[B-]1(OC(C)=O)OC(/C=C/c2ccc(C)cc2)=CC(/C=C/c2ccc(C)cc2)=[O+]1
photoluminescence quantum yield (in C1CCOC1): 0.75
photoluminescence quantum yield (in CC#N): 0.55
photoluminescence quantum yield (in CC(C)=O): 0.58
photoluminescence quantum yield (in CS(C)=O): 0.51
photoluminescence quantum yield (in Cc1ccccc1): 0.88
photoluminescence quantum yield (in ClC(Cl)Cl): 0.63
photoluminescence quantum yield (in ClCCl): 0.56

SMILES: CC(C)(C)c1ccc2c3c(c4ccc(C(C)(C)C)cc4c2c1)=[N+]1C(=C(c2ccccc2)c2c(Br)c4c5ccc(C(C)(C)C)cc5c5cc(C(C)(C)C)ccc5c4n2[B-]1(F)F)C=3Br
photoluminescence quantum yield (in C1CCCCC1): 0.03
photoluminescence quantum yield (in C1CCOC1): 0.02
photoluminescence quantum yield (in CC#N): 0.02
photoluminescence quantum yield (in Cc1ccccc1): 0.03
photoluminescence quantum yield (in ClCCl): 0.03

SMILES: CN(C)c1ccc(C2=Nc3sc4c(F)c(F)c(F)c(F)c4[n+]3[B-](F)(F)O2)cc1
photoluminescence quantum yield (in C1CCOC1): 0.47
photoluminescence quantum yield (in CC#N): 0.02
photoluminescence quantum yield (in Cc1ccccc1): 0.65
photoluminescence quantum yield (in ClCCl): 0.66

SMILES: Cc1cnc(NC(=O)C2=C([O-])c3ccccc3S(=O)(=O)N2C)s1
photoluminescence quantum yield (in CC#N): 0.00144
photoluminescence quantum yield (in CCCCO): 0.0114
photoluminescence quantum yield (in CCCO): 0.00864
photoluminescence quantum yield (in CCO): 0.00427
photoluminescence quantum yield (in CO): 0.00252

SMILES: CN(C)c1ccc(C2=Nc3sc4cc(C(F)(F)F)ccc4[n+]3[B-](F)(F)O2)cc1
photoluminescence quantum yield (in C1CCOC1): 0.61
photoluminescence quantum yield (in CC#N): 0.05
photoluminescence quantum yield (in CC(C)=O): 0.13
photoluminescence quantum yield (in Cc1ccccc1): 0.93
photoluminescence quantum yield (in ClCCl): 1

SMILES: CC1=CC(C)=[N+]2C1=C(c1ccccc1)c1c(C)cc(/C=C/c3ccc(N(C)C)cc3)n1[B-]2(F)F
photoluminescence quantum yield (in CCOCC): 0.83

SMILES: CCCC1(CCC)c2cc(-c3ccc(OC)cc3)ccc2-c2ccc(-c3ccc4c(c3)C(CCC)(CCC)c3cc(-c5ccc(OC)cc5)ccc3-4)cc21
photoluminescence quantum yield (in C1CCCCC1): 1

SMILES: CC1(C)c2ccccc2N(c2c(F)cc(-c3nnc(-c4ccccc4)o3)cc2F)c2ccccc21
photoluminescence quantum yield (in Cc1ccccc1): 0.24
photoluminescence quantum yield [1]: 0.72

SMILES: CCOC(=O)c1c2c3c(ccc(Br)c3c3cc4c(cc13)[Si](C)(C)O[Si]4(C)C)N(C)C2=O
photoluminescence quantum yield (in CC#N): 0.31

SMILES: CCCCCCC1(CCCCCC)c2cc(-c3nc(-c4ccc5c(c4)C(CCCCCC)(CCCCCC)c4cc(-n6c7ccc(C(C)(C)C)cc7c7cc(C(C)(C)C)ccc76)ccc4-5)nc(-c4ccc5c(c4)C(CCCCCC)(CCCCCC)c4cc(-n6c7ccc(C(C)(C)C)cc7c7cc(C(C)(C)C)ccc76)ccc4-5)n3)ccc2-c2ccc(-n3c4ccc(C(C)(C)C)cc4c4cc(C(C)(C)C)ccc43)cc21
photoluminescence quantum yield (in C1CCOC1): 0.56
photoluminescence quantum yield (in CCCCCC): 1
photoluminescence quantum yield (in Cc1ccccc1): 0.99
photoluminescence quantum yield (in ClCCl): 0.56

The next lines start with the values.

photoluminescence quantum yield (in CN(C)C=O): 0.42
SMILES: Brc1ccc2[nH]c(-c3ccc(-c4ccc(-c5ccc(-c6nc7cc(Br)ccc7[nH]6)cc5)cc4)cc3)nc2c1

photoluminescence quantum yield (in C1CCOC1): 0.6
SMILES: C(=C\c1cccc(/C=C/c2c3ccccc3cc3ccccc23)c1)/c1ccncc1

photoluminescence quantum yield (in ClCCl): 0.1
SMILES: Nc1cccc2c1ccc1[n+]2[B-](F)(F)n2c-1cc1c3ccccc3c3ccccc3c12

photoluminescence quantum yield (in ClC(Cl)Cl): 0.01
photoluminescence quantum yield (in ClCCl): 0.009
SMILES: COc1cc2cc(OC)c(-c3ccc([N+](=O)[O-])cc3)cc2cc1-c1ccc([N+](=O)[O-])cc1

photoluminescence quantum yield (in ClCCl): 0.53
SMILES: CC(C)c1cccc(C(C)C)c1N1C(=O)c2ccc3cc4c(cc5ccc6c7c(ccc4c57)C(=O)N(c4c(C(C)C)cccc4C(C)C)C6=O)c4ccc(c2c34)C1=O

photoluminescence quantum yield (in ClC(Cl)Cl): 0.03
SMILES: CCOC(=O)/C=C/C1=C(c2ccc(C)cc2)C2=Nc3c(-c4ccc(C)cc4)c(Br)c(-c4ccc(C)cc4)n3[B-](F)(F)[N+]2=C1c1ccc(C)cc1

photoluminescence quantum yield (in CCO): 0.715
SMILES: Cc1c(COC(=O)Cc2c[nH]c3ccccc23)n2c(OCC(=O)Cc3c[nH]c4ccccc34)c(C)c(=O)n2c1=O

photoluminescence quantum yield (in C1COCCO1): 0.95
photoluminescence quantum yield (in CC#N): 0.87
photoluminescence quantum yield (in CO): 0.92
photoluminescence quantum yield (in ClCCl): 0.95
SMILES: COC(=O)c1nc2c(OCc3ccccc3)nc(N)nc2n1Cc1ccccc1

photoluminescence quantum yield (in ClCCl): 0.76
SMILES: c1ccc2cc(-c3c4ccccc4c(-c4ccc(-n5c6ccccc6c6ccccc65)cc4)c4ccccc34)ccc2c1

photoluminescence quantum yield (in ClCCl): 0.28
SMILES: COc1ccc(C2=C(c3ccc(OC)cc3)c3cccc4c5c(cc(c34)O2)=NC2C=C(Br)C(Br)=CC2N=5)cc1 (centres undefined)

photoluminescence quantum yield (in C1COCCO1): 0.26
photoluminescence quantum yield (in CC#N): 0.04
photoluminescence quantum yield (in ClCCl): 0.2
SMILES: CCCCN(CCCC)c1ccc(/C=C/c2ccc3nc(/C=C/c4ccc(N(C)C)cc4)c(=O)n(CCC)c3c2)cc1

photoluminescence quantum yield (in ClCCl): 0.0876
SMILES: CC1(C)c2ccccc2N(c2ccc(-c3nc(-c4ccccn4)n(-c4ccc(N5c6ccccc6C(C)(C)c6ccccc65)cc4)n3)cc2)c2ccccc21

photoluminescence quantum yield (in ClCCl): 0.0641
SMILES: CC1=C(Br)C(C)=[N+]2C1=C(c1c(-c3ccccn3)nc3ccccn13)c1c(C)c(Br)c(C)n1[B-]2(F)F

photoluminescence quantum yield (in ClCCl): 0.71
SMILES: CC(C)(C)c1ccc(N(c2ccccc2)c2ccc3ccc4c(N(c5ccccc5)c5ccc(C(C)(C)C)cc5)ccc5ccc2c3c54)cc1

photoluminescence quantum yield (in ClC(Cl)Cl): 0.44
SMILES: CN(C)c1ccc(-c2cc(-c3ccc(C#N)cc3)nc(-c3ccccc3)n2)cc1

photoluminescence quantum yield (in CC#N): 0.026
SMILES: C[n+]1ccn(CCCCc2ccc3c(c2)c2ccccc2n3-c2cc(C#N)c(C#N)cc2-n2c3ccccc3c3cc(CCCCn4cc[n+](C)c4)ccc32)c1

photoluminescence quantum yield (in C1CCOC1): 0.14
SMILES: F[Si](c1ccccc1)(c1ccccc1)c1cccc2ccccc12

photoluminescence quantum yield (in ClC(Cl)Cl): 0.18
SMILES: CC1(C)c2ccccc2-c2ccc(N3c4ccc(-c5ccc(/C=C6\C(=O)c7ccc(C(=O)O)cc7C6=O)s5)cc4C4CCCC43)cc21 (centres undefined)

photoluminescence quantum yield (in CCCCCCC): 0.1
SMILES: c1ccc2c3c(ccc2c1)-c1cc2ccccc2c2cccc-3c12

photoluminescence quantum yield (in ClCCl): 0.29
SMILES: C[Si]1(C)O[Si](C)(C)c2cc3nc4ccc(Cl)cc4c(-c4ccccc4)c3cc2[Si](C)(C)O1

photoluminescence quantum yield (in CC1CCCCC1): 0.7
photoluminescence quantum yield (in CC#N): 0.58
SMILES: C(=C\c1c2ccccc2cc2ccccc12)/c1cnc2ccccc2c1

photoluminescence quantum yield (in CN(C)C=O): 0.82
SMILES: Cc1cc(-c2ccc(-c3nc4ccccc4[nH]3)cc2)ccc1-c1ccc(-c2nc3ccccc3[nH]2)cc1

photoluminescence quantum yield (in ClCCl): 0.46
SMILES: COc1ccc(N(c2ccccc2)c2ccc3ccc4c(N(c5ccccc5)c5ccc(OC)cc5)ccc5ccc2c3c54)cc1

photoluminescence quantum yield (in ClCCl): 0.11
SMILES: CC1(C)c2ccccc2-c2sc3ccccc3c21

photoluminescence quantum yield (in C1CCOC1): 0.11
photoluminescence quantum yield (in CC#N): 0.15
photoluminescence quantum yield (in CO): 0.09
photoluminescence quantum yield (in ClCCl): 0.07
SMILES: C(=C\c1nc2ccccc2[nH]1)/c1ccc(-c2nc3c4cccnc4c4ncccc4c3[nH]2)cc1

photoluminescence quantum yield (in CCO): 0.39
photoluminescence quantum yield (in ClC(Cl)Cl): 0.19
SMILES: COc1ccc2c(-c3nc(-c4ccccc4Cl)no3)cc(=O)oc2c1

photoluminescence quantum yield (in ClCCl): 0.36
SMILES: C[Si]1(C)c2ccc(C#Cc3ccccc3)cc2C=Cc2cc(C#Cc3ccccc3)ccc21

photoluminescence quantum yield (in C1CCOC1): 0.5
SMILES: CC(=O)c1ccc(-c2cnc3nn4ccccc4c3n2)cc1

photoluminescence quantum yield (in ClCCl): 0.02
SMILES: c1ccc2c(c1)ccc1ccc3ccc4ccc5ccccc5c4c3c12

photoluminescence quantum yield (in CCCCCC): 0.47
SMILES: CC(C)[Si](C#Cc1c2ccccc2c(C#C[Si](C(C)C)(C(C)C)C(C)C)c2nc3c(nc12)Cc1ccccc1-3)(C(C)C)C(C)C

photoluminescence quantum yield (in ClCCl): 0.2
SMILES: CCCCCCc1cc2c(s1)-c1cc3c(cc1NB2c1ccccc1)-c1sc(CCCCCC)cc1B(c1ccccc1)N3
